Source: patent publication US5371081A, “N-substituted phenoxazines for treating multidrug resistant cancer cells” (St. Jude Children's Research Hospital, priority 1993, dated 1994)
Where two headings read alike, the source gives them in different places.

What was measured:
[1] = tested on: KB Ch^R -8-5 Cells; test: Vinca (VCR, VLB) accumulation, anti-MDR activity; type: cell-based; details: Homo sapiens, compound 100 μM, 2 h, room temperature, mean of two experiments, SD <10%
Procedure: The resistance of the KBCh®-8-5 cells was maintained by culturing them with colchicine (10 ng/ml).
Then, 2 mL of cell suspensions (2×10^6) were plated in 35×10 mm style "easy grip" culture dishes (Becton Dickinson Co., Lincoln Park, N.J.). Cells were allowed to attach to plastic overnight at 37° C. Medium was aspirated and cells were washed with (2×2 mL) physiologic tris (PT) buffer. […] VCR (sp.act. 7.1 ci/mmol) or 49.5 nm [^3 H] […] After 2 h of incubation at room temperature, medium was rapidly aspirated to terminate drug accumulation, and monolayers were washed four times with ice-cold PBS (g/L: NaCL 8.0; Na2 HPO4.12H2 O, 2.9; KCl 0.2; KH2 PO4, 0.2) and drained. To each dish, 1 ml of trypsin-EDTA (0.05% trypsin, 0.53 mM EDTA) was added. After 1 minute, monolayers were triturated to give a uniform suspension of cells, and radioactivity in 0.75 ml was determined by scintillation counting. Cell number per dish was determined on 200 μl of suspension using the method of Butler, and amounts of intracellular VCR or VLB were determined.

[2] = tested on: GC3 /Cl Cells; test: Vinca (VCR, VLB) accumulation, anti-MDR activity; type: cell-based; details: Homo sapiens, compound 100 μM, 2 h, room temperature, mean of two experiments, SD <10%
[3] = tested on: KBCh^R -8-5; test: Cytotoxicity of N-substituted phenoxazines to tumor cells (clonogenic survival); type: cell-based; details: Homo sapiens, 168 h, 7 days, 37° C., read-out: IC50 (50% reduction in clonogenic survival)
Procedure: (§1) The KBCh®-8-5 cells were plated in triplicate at a density of 1000 cells per well and GC3 at 3000 cells per well in Falcon 6-well flat-bottom tissue culture plates (Becton Dickinson Co., Lincoln Park, N.J.). After 24 h, incubation medium was replaced with 3 mL of fresh medium containing compounds 1-4 or 10-14 or 18 at concentrations ranging from 1-100 μm (final culture concentration, 0.1% DMSO), and cells were incubated at 37° C. for a further 7 days. The medium was aspirated and cells were washed once with 2 mL of 0.9% saline and dried overnight. Colonies were stained with 1 mL of 0.1% crystal violet followed by washing twice with distilled water and were counted using an automated ARTEK Model 880 colony counter. The IC50 values were determined from concentration-percent-cell-survival curves and were defined as the concentrations of phenoxazines required for 50% reduction in colonies compared to controls.
(§2) ^a IC50 is the concentration required to produce 50% reduction i
(§3) clonogenic survivial of GC3 /Cl and KBCH^R -85 cells under the
(§4) conditions described in Example 23.

[4] = tested on: GC3 /CL; test: as above; type: cell-based; details: Homo sapiens, 168 h, 7 days, 37° C., read-out: IC50 (50% reduction in clonogenic survival)
Procedure: as §1, §2, §3, §4

[5] = tested on: MDR; details: in model systems; cited from earlier work
[6] = tested on: KBCh®-8-5 cells; details: compared with verapamil; cited from earlier work
[7] = tested on: MDR GC3 /Cl cells; details: compared with verapamil; cited from earlier work
[8] = tested on: GC3 /Cl Cells; test: Potentiation of cytotoxicity of vincristine and vinblastine; type: cell-based; details: Homo sapiens, 168 h
Procedure: (§5) Tumor cells were treated with graded concentrations of VCR and VLB in the absence or presence of nontoxic concentrations of the products of Examples 1, 3, 4 and 18. The plates were then transferred to a CO2 incubator and, after further incubation for 7 days at 37° C., colonies were enumerated as described in Example 23.
(§6) ^a IC50 concentration of modulator

[9] = tested on: KB Ch^R -8-5 Cells; test: as above; type: cell-based; details: Homo sapiens, 168 h
Procedure: as §5, §6

[10] = tested on: GC3 /CL; test: Resistance of cell line to VCR; type: cell-based, human; details: relative to KB-3-1
Procedure: (§7) A cloned line of human colon adenocarcinoma, GC3 /Cl^31, which is intrinsically resistant to VCR (≈4-fold relative to KB-3-1), was routinely grown at 37° C. in antibiotic-free RPMI-1640 medium supplemented with 2 mM glutamine and 10% FBS (Hyclone Laboratories, Inc., Logan, Utah) in a humidified atmosphere of 5% CO2 and 95% air. Human epidermoid carcinoma KB-3-1 cells and a colchicine selected MDR variant, KBCh®-8-5, were obtained which was cross-resistant to VCR (45-fold) and VLB (6.3-fold); it was grown in monolayer culture at 37° C. in DMEM with 10% FBS and L-glutamine in a humidified atmosphere of 10% CO2 in air. The resistance of the KBCh®-8-5 cells was maintained by culturing them with colchicine (10 ng/ml).

[11] = tested on: KBCh®-8-5; test: Cross-resistance of cell line to VCR and VLB; type: cell-based, human; details: KBCh®-8-5, colchicine selected MDR variant
Procedure: as §7

[12] = [3H] VCR 70.4 nm, read-out: Vinca Accumulation, VCR
[13] = [3H] VLB 49.5 nm, read-out: Vinca Accumulation, VLB

ClCCCN1c2ccccc2Oc2ccccc21 [Compound 1, 10-(3'-chloropropyl)-phenoxazine] gave an activity at 100 µM [1, 12] of 454%, an activity at 100 µM [2, 12] of 846% and an IC50 [3] of 57 µM. The IC50 [4] was 83 µM.
In the case of OCCN1CCN(CCCCN2c3ccccc3Oc3ccccc32)CC1 [Compound 13, 10-(4'-β-hydroxyethylpiperazinobutyl) phenoxazine], the activity at 100 µM [1, 12] is reported as 91%, the activity at 100 µM [1, 13] is reported as 188% and the activity at 100 µM [2, 12] is reported as 543%. For the same compound, the IC50 [3] was < 10 µM and the IC50 [4] was 7 µM.
c1ccc2c(c1)Oc1ccccc1N2CCCN1CCCC1 [Compound 7, 10-(3'-N-pyrrolidinopropyl)phenoxazine] showed an activity at 100 µM [1, 12] of 408% and an activity at 100 µM [2, 12] of 250%.
OCCN1CCN(CCCN2c3ccccc3Oc3ccccc32)CC1 [Compound 6, 10-(3'-β-hydroxyethylpiperazinopropyl) phenoxazine] showed an activity at 100 µM [1, 12] of 343% and an activity at 100 µM [2, 12] of 368%.
Work on ClCCCCN1c2ccccc2Oc2ccccc21 [Compound 8, 10-(4'-chlorobutyl)phenoxazine] yielded an activity at 100 µM [1, 12] of 398% and an activity at 100 µM [2, 12] of 317%.
For c1ccc2c(c1)Oc1ccccc1N2CCCCN1CCOCC1 [Compound 11, 10-(4'-N-morpholinobutyl)phenoxazine], the activity at 100 µM [1, 12] was 702%, the activity at 100 µM [2, 12] was 477% and the IC50 [3] was 18 µM. The IC50 [4] was 27 µM.
For COC(=O)[C@H]1[C@H]2C[C@@H]3c4[nH]c5cc(OC)ccc5c4CCN3C[C@H]2C[C@@H](OC(=O)c2cc(OC)c(OC)c(OC)c2)[C@@H]1OC [reserpine], the “modifying MDR” value [5] is given as “active in modifying MDR”.
In the case of COc1ccc(CCN(C)CCCC(C#N)(c2ccc(OC)c(OC)c2)C(C)C)cc1OC (stereo not shown) [Verapamil], the “modifying MDR” value [5] is listed as “active in modifying MDR”.
Work on O=C(CCl)N1c2ccccc2Oc2ccccc21 [Compound 15, 10-(chloroacetyl)phenoxazine] yielded an activity at 100 µM [1, 12] of 138%, an activity at 100 µM [1, 13] of 236% and an activity at 100 µM [2, 12] of 171%. For the same compound, the activity at 100 µM [2, 13] was 284%.
In the case of c1ccc2c(c1)Oc1ccccc1N2CCCCN1CCCCC1 [Compound 12, 10-(4'-N-piperidinobutyl)phenoxazine], the activity at 100 µM [1, 12] is reported as 196%, the activity at 100 µM [2, 12] is reported as 416% and the IC50 [3] is reported as < 10 µM. The IC50 [4] was 7 µM.
For O=C(CN1CCN(CCO)CC1)N1c2ccccc2Oc2ccccc21 [Compound 19, 10-(β-hydroxyethylpiperazinoacetyl)phenoxazine], the activity at 100 µM [1, 12] was 280%, the activity at 100 µM [1, 13] was 776% and the activity at 100 µM [2, 12] was 157%. The activity at 100 µM [2, 13] was 426%.
Compound O=C(CN1CCOCC1)N1c2ccccc2Oc2ccccc21 [Compound 17, 10-(N-morpholinoacetyl)phenoxazine] has an activity at 100 µM [1, 12] of 290%, an activity at 100 µM [1, 13] of 674% and an activity at 100 µM [2, 12] of 213%. For the same compound, the activity at 100 µM [2, 13] was 298%.
Compound c1ccc2c(c1)Oc1ccccc1N2CCCN1CCOCC1 [Compound 4, 10-(3'-N-morpholinopropyl)phenoxazine] has an activity at 100 µM [1, 12] of 742%, an activity at 100 µM [2, 12] of 634% and an IC50 [3] of 73 µM. The IC50 [4] was 40 µM.
O=C(N1c2ccccc2Oc2ccccc21)C(F)(F)F [Compound 21, 10-(trifluoroacetyl)phenoxazine] showed an activity at 100 µM [1, 12] of 415%, an activity at 100 µM [1, 13] of 827% and an activity at 100 µM [2, 12] of 230%. It also gave an activity at 100 µM [2, 13] of 222%.
With c1ccc2c(c1)Oc1ccccc1N2CCCCN1CCCC1 [Compound 14, 10-(4'-N-pyrrolidinobutyl)phenoxazine] the activity at 100 µM [1, 12] was 198%, the activity at 100 µM [1, 13] was 477% and the activity at 100 µM [2, 12] was 412%. The IC50 [3] was < 10 µM and the IC50 [4] was 8 µM.
Compound CCN(CC)CC(=O)N1c2ccccc2Oc2ccccc21 [Compound 16, 10-(diethylaminoacetyl)phenoxazine] has an activity at 100 µM [1, 12] of 184%, an activity at 100 µM [1, 13] of 953% and an activity at 100 µM [2, 12] of 160%. The activity at 100 µM [2, 13] was 305%.
For c1ccc2c(c1)Nc1ccccc1O2 [phenoxazine], the “potentiation of uptake of VCR and VLB” value [6] is given as “to a greater extent than verapamil” and the “potentiation of uptake of VCR and VLB” value [7] is given as “to a greater extent than verapamil”.
For CC[C@]1(O)C[C@H]2CN(CCc3c([nH]c4ccccc34)[C@@](C(=O)OC)(c3cc4c(cc3OC)N(C=O)[C@H]3[C@@](O)(C(=O)OC)[C@H](OC(C)=O)[C@]5(CC)C=CCN6CC[C@]43[C@@H]65)C2)C1 [VCR], the IC50 ([8]; read-out: IC50 of VCR alone) was 0.027 µM, the IC50 ([9]; read-out: IC50 of VCR alone) was 0.032 µM and the “resistance to VCR” value [10] was “≈ 4 fold”. For the same compound, the “cross-resistance to VCR” value [11] was 45 fold.
With CC[C@]1(O)C[C@@H]2CN(CCc3c([nH]c4ccccc34)[C@@](C(=O)OC)(c3cc4c(cc3OC)N(C)[C@H]3[C@@](O)(C(=O)OC)[C@H](OC(C)=O)[C@]5(CC)C=CCN6CC[C@]43[C@@H]65)C2)C1 [VLB] the IC50 ([8]; read-out: IC50 of VLB alone) was 0.0074 µM, the IC50 ([9]; read-out: IC50 of VLB alone) was 0.02 µM and the “cross-resistance to VLB” value [11] was 6.3 fold.
CCN(CC)CCCCN1c2ccccc2Oc2ccccc21 [Compound 9, 10-(4'-diethylaminobutyl)phenoxazine] showed an activity at 100 µM [1, 12] of 211% and an activity at 100 µM [2, 12] of 325%.
Work on O=C(CN1CCCCC1)N1c2ccccc2Oc2ccccc21 [Compound 18, 10-(N-piperidinoacetyl)phenoxazine] yielded an activity at 100 µM [1, 12] of 326%, an activity at 100 µM [2, 12] of 177% and an activity at 100 µM [2, 13] of 446%. It also gave an IC50 [3] of 73 µM.
For CN1CCN(CCCN2c3ccccc3Sc3ccc(C(F)(F)F)cc32)CC1 [trifluoperazine], the “modifying MDR” value [5] is given as “active in modifying MDR”.
CCN(CC)CCCN1c2ccccc2Oc2ccccc21 [Compound 2, 10-(3'-diethylaminopropyl)phenoxazine] gave an activity at 100 µM [1, 12] of 546%, an activity at 100 µM [2, 12] of 439% and an IC50 [3] of 15 µM.
With OCCN(CCO)CCCCN1c2ccccc2Oc2ccccc21 [Compound 10, 10-(4'-bishydroxyethylaminobutyl) phenoxazine] the activity at 100 µM [1, 12] was 92%, the activity at 100 µM [2, 12] was 382% and the IC50 [3] was < 10 µM. For the same compound, the IC50 [4] was 16 µM.
With c1ccc2c(c1)Oc1ccccc1N2CCCN1CCCCC1 [Compound 5, 10-(3'-N-piperidinopropyl)phenoxazine] the activity at 100 µM [1, 12] was 435% and the activity at 100 µM [2, 12] was 282%.
In the case of C=C[C@H]1C[N@@]2CC[C@H]1C[C@@H]2[C@@H](O)c1ccnc2ccc(OC)cc12 [quinidine], the “modifying MDR” value [5] is given as “active in modifying MDR”.
For O=C(CN1CCCC1)N1c2ccccc2Oc2ccccc21 [Compound 20, 10-(N-pyrrolidinoacetyl)phenoxazine], the activity at 100 µM [1, 12] was 188%, the activity at 100 µM [1, 13] was 776% and the activity at 100 µM [2, 12] was 151%. It also gave an activity at 100 µM [2, 13] of 296%.
With OCCN(CCO)CCCN1c2ccccc2Oc2ccccc21 [Compound 3, 10-(3'-bishydroxyethylaminopropyl)phenoxazine] the activity at 100 µM [1, 12] was 473%, the activity at 100 µM [2, 12] was 464% and the IC50 [3] was 38 µM. For the same compound, the IC50 [4] was 37 µM.
